# Patent US7074789B2, “Kinase inhibitors” (Amgen Inc., priority 1999, dated 2006)
# Like-named read-outs stand apart in the source and are kept apart here.
# Key:
# Format in all cases: biochemical
# Kdr = target: T1, Kdr (Homo sapiens, UniProt P35968); experiment: Kinase inhibition assay (33P transfer), Kdr; conditions: read-out: KDR-1
# T1 construct: Kinases are expressed as either kinase domains or full length constructs; made in house
# Method in brief: (§1)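 Radiometric readout: 33P incorporated into surface-bound poly(Glu,Tyr) 4:1 or poly(Arg,Ser) 3:1 is counted by liquid scintillation after a 0.5% phosphoric acid wash. Enzymes were GST or polyHis fusions (kinase domain or full length) from E. coli or High Five insect cells.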
# IGFR-1 [1] = target: T2, IGFR-1 (Homo sapiens, UniProt P08069); experiment: Kinase inhibition assay (33P transfer), IGFR-1; conditions: Table 2, class symbols A-E
# T2 construct: Kinases are expressed as either kinase domains or full length constructs; made in house
# T2 sequence (P08069 31-1367): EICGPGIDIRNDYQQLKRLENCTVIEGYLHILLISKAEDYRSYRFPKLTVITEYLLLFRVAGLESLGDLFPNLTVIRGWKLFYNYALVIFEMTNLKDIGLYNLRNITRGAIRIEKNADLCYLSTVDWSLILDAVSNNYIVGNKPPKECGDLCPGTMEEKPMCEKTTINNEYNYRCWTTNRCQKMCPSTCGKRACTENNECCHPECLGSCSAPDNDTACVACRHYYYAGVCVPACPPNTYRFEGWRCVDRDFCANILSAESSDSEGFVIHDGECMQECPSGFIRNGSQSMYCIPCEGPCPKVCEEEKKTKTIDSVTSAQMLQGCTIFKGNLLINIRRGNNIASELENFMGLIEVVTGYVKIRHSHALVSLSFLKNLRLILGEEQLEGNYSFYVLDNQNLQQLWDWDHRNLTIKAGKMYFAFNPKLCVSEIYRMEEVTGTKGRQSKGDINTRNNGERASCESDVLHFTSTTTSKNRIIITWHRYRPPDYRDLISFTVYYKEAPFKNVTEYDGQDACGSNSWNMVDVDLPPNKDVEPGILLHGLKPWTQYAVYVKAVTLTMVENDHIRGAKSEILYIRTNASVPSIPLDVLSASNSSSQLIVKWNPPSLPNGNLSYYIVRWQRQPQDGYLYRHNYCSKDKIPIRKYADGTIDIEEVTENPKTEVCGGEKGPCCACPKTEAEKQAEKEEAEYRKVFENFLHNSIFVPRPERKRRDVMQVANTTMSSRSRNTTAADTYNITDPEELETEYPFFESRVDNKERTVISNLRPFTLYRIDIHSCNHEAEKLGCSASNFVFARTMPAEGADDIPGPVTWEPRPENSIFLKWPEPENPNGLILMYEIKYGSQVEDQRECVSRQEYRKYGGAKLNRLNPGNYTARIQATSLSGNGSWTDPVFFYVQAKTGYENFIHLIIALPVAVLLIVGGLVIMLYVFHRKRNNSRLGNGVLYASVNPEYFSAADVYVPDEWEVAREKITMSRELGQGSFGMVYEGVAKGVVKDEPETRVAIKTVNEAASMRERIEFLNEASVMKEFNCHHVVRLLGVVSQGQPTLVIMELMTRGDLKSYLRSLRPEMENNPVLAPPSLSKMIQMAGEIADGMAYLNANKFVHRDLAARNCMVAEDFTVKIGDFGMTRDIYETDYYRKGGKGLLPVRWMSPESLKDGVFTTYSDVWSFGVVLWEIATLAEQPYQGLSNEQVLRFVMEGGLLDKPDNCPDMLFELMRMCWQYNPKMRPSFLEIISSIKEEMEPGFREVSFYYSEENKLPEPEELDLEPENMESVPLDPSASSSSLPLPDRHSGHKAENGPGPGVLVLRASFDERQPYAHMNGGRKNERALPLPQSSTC
# EGFR = target: T3, EGFR (Homo sapiens, UniProt P00533); experiment: Kinase inhibition assay (33P transfer), EGFR; conditions: read-out: EGFR-1
# T3 construct: Kinases are expressed as either kinase domains or full length constructs; made in house
# T3 sequence (P00533 25-1210, species assumed): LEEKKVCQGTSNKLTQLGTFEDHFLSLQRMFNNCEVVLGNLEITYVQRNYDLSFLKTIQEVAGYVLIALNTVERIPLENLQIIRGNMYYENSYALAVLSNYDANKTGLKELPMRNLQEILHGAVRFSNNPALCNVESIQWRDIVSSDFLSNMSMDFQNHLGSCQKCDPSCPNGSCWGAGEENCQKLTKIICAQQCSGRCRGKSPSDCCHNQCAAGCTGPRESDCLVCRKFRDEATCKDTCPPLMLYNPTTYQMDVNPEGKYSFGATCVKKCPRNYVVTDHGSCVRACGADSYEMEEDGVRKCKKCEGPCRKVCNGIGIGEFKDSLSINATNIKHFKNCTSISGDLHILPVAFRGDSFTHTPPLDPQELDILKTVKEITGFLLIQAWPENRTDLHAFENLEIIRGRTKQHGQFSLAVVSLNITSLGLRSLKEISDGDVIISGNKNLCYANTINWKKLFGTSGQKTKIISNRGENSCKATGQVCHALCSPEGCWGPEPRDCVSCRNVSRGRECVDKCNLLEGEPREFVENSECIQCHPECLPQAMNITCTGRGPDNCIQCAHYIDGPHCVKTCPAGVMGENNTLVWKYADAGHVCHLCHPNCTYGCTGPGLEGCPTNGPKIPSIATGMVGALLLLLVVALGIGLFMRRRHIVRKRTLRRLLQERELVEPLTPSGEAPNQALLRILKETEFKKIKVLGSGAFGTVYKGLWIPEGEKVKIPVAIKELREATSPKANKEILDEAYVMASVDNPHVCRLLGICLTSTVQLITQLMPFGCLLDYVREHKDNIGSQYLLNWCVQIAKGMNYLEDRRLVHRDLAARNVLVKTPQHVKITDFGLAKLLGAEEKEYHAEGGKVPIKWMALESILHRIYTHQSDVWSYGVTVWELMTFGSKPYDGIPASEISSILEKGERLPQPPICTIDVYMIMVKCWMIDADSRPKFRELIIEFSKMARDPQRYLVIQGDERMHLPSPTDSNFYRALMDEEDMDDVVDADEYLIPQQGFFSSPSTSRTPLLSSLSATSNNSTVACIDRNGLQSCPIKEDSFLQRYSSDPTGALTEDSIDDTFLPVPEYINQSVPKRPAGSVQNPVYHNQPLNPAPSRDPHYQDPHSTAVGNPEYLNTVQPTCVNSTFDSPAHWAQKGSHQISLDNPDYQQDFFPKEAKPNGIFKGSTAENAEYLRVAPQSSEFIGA
# Method in brief: (§2)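 Recombinant kinase domains or full-length GST- or His-tagged constructs, from E. coli or baculovirus/High Five cells, sometimes with regulatory polypeptides. Transfer of 33P from ATP to plate-bound poly(Glu,Tyr) 4:1 or poly(Arg,Ser) 3:1 counted by liquid scintillation after phosphoric acid wash; IC50 is the concentration halving incorporation.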
# Zap-70 = target: T4, Zap-70 (Homo sapiens, UniProt P43403); experiment: Kinase inhibition assay (33P transfer), Zap-70; conditions: read-out: Zap-1
# T4 construct: Kinases are expressed as either kinase domains or full length constructs; made in house
# T4 sequence (P43403 1-619): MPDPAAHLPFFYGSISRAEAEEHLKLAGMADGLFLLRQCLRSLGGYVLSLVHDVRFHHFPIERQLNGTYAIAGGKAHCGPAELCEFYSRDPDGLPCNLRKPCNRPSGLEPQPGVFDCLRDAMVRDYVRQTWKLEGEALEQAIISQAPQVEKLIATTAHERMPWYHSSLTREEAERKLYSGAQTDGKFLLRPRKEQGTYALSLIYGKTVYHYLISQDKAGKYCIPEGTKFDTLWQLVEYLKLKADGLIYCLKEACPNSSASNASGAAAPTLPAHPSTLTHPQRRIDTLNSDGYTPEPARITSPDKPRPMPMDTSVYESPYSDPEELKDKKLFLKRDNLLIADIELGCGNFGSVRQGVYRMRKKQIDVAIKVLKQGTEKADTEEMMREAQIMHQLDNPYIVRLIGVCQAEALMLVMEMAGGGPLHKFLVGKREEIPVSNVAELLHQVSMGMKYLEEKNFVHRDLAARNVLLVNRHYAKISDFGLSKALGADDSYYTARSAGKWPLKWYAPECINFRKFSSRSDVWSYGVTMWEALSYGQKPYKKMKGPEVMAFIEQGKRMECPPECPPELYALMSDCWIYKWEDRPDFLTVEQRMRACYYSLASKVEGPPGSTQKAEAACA
# Method in brief: as §1
# Lck = target: T5, Lck (Homo sapiens, UniProt P06239); experiment: Kinase inhibition assay (33P transfer), Lck; conditions: read-out: Lck-1
# T5 construct: Kinases are expressed as either kinase domains or full length constructs; made in house
# T5 sequence (P06239 whole entry, species assumed, the tested form may be a part): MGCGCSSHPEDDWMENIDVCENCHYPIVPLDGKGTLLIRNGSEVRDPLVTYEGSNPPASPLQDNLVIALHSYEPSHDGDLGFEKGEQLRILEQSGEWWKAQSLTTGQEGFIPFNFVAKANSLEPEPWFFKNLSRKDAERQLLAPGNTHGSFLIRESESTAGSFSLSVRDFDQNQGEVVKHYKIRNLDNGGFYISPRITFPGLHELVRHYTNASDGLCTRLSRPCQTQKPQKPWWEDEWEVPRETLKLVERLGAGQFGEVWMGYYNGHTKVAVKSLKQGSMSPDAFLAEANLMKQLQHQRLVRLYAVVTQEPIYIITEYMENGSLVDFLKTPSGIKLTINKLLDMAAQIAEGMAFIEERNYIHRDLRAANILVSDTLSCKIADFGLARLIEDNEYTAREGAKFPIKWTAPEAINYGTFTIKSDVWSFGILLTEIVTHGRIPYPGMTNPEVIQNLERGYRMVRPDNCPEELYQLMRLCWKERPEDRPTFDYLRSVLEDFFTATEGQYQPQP
# Method in brief: as §1
# AKT = target: T6, AKT (Homo sapiens, UniProt Q9Y243); experiment: Kinase inhibition assay (33P transfer), AKT; conditions: read-out: AKT3-1
# T6 construct: Kinases are expressed as either kinase domains or full length constructs; made in house
# T6 sequence (Q9Y243 whole entry, the tested form may be a part): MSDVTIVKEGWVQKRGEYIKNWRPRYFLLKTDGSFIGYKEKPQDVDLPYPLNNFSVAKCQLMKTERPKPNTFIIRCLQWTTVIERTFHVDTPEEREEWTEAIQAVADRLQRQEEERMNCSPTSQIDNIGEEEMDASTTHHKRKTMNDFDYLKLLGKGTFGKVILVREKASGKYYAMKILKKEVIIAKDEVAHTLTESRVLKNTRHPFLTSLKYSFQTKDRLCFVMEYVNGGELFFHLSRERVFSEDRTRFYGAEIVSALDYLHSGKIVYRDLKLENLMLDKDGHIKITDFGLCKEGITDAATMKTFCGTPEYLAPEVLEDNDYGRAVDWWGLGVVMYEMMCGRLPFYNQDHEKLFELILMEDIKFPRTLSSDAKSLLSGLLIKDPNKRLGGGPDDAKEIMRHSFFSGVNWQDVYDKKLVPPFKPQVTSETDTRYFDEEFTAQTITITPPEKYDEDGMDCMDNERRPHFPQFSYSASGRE
# Method in brief: as §1
# c-Met = target: T7, c-Met (Homo sapiens, UniProt P08581); experiment: Kinase inhibition assay (33P transfer), c-Met; conditions: read-out: Met-1
# T7 construct: Kinases are expressed as either kinase domains or full length constructs; made in house
# T7 sequence (P08581 25-1390): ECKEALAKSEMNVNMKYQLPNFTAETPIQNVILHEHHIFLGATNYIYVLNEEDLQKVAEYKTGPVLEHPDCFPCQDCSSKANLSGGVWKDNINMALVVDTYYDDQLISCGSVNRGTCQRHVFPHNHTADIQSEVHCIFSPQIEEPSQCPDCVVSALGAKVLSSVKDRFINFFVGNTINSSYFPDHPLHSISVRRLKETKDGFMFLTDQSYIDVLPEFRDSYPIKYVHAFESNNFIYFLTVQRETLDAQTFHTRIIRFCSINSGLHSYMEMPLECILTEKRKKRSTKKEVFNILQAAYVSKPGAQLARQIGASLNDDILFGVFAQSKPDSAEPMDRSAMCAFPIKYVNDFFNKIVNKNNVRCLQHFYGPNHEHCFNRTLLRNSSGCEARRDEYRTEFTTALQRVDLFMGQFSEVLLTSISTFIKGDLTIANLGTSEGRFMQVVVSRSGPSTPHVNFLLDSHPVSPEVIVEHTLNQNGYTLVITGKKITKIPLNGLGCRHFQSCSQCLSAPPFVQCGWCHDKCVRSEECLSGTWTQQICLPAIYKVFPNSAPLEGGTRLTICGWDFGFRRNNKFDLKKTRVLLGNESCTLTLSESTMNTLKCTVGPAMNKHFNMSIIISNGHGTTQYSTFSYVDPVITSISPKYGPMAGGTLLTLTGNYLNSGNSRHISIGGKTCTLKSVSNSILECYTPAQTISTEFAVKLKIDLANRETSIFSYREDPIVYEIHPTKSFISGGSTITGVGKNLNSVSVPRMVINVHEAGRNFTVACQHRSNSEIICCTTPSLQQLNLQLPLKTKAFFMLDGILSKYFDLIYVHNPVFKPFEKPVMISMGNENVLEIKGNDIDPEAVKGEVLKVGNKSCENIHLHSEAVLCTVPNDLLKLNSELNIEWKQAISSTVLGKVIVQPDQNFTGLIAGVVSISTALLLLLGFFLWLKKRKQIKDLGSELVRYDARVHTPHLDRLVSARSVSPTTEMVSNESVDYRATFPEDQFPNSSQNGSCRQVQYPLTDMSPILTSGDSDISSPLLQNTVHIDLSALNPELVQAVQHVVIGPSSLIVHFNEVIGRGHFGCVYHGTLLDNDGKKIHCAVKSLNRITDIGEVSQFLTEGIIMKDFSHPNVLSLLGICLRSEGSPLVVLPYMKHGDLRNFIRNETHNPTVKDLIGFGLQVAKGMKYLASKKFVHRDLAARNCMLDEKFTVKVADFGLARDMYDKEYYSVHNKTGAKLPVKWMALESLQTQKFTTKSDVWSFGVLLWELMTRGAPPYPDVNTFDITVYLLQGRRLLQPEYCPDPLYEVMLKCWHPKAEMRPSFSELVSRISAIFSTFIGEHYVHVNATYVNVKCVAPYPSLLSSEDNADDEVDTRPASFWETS
# Method in brief: as §2
# Itk = target: T8, Itk (Homo sapiens, UniProt Q08881); experiment: Kinase inhibition assay (33P transfer), Itk; conditions: read-out: Itk-1
# T8 construct: Kinases are expressed as either kinase domains or full length constructs; made in house
# T8 sequence (Q08881 1-620): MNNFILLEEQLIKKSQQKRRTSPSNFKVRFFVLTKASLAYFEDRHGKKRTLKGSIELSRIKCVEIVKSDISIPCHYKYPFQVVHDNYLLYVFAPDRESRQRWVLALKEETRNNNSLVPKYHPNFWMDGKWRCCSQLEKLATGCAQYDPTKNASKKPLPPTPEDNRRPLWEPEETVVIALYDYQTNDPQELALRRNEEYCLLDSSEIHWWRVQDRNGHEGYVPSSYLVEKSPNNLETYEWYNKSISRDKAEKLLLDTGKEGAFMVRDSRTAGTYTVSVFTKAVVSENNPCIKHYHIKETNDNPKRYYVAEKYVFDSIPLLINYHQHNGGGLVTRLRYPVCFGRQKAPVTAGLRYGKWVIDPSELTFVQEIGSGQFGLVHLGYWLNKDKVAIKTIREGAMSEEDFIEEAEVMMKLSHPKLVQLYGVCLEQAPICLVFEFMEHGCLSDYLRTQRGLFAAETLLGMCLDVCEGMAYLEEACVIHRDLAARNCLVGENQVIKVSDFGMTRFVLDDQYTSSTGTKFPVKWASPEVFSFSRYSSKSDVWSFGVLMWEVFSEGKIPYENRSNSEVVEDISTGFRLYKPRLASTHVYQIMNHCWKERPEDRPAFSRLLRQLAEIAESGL
# Method in brief: as §2
# Tek = target: T9, Tek (Homo sapiens, UniProt Q02763); experiment: Kinase inhibition assay (33P transfer), Tek; conditions: read-out: Tek-1
# T9 construct: Kinases are expressed as either kinase domains or full length constructs; made in house
# Method in brief: as §2
# EPHB4 = target: T10, EPHB4 (Homo sapiens, UniProt P54760); experiment: Kinase inhibition assay (33P transfer), EPHB4; conditions: read-out: EPHB4-1
# T10 construct: Kinases are expressed as either kinase domains or full length constructs; made in house
# T10 sequence (P54760 16-987): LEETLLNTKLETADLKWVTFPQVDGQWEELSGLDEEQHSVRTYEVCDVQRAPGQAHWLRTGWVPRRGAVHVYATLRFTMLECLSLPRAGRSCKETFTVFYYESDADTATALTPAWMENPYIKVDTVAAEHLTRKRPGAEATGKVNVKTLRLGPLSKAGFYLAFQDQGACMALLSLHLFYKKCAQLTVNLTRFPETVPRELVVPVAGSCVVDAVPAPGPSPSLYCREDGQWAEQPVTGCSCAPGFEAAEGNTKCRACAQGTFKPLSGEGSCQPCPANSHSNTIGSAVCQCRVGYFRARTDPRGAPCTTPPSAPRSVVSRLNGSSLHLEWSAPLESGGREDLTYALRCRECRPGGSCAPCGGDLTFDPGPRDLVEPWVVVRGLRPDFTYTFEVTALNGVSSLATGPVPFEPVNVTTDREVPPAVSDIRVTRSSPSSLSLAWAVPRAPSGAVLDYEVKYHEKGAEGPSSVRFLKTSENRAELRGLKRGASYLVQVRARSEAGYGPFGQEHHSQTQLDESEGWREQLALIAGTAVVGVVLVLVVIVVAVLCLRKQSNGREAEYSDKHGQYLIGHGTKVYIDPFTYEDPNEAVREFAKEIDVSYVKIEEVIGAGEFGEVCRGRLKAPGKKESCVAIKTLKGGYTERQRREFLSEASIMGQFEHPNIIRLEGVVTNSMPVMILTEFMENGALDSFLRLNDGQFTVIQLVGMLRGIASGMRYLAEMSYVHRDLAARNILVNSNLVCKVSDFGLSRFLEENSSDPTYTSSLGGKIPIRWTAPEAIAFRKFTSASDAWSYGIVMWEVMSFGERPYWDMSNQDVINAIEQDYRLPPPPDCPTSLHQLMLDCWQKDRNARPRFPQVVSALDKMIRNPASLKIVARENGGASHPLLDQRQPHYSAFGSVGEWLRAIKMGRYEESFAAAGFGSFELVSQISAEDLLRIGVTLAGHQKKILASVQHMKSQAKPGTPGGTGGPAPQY
# IGFR-1 [2] = target: T2, IGFR-1; experiment: Kinase inhibition assay (33P transfer), IGFR-1; conditions: Table 2, kinase inhibition class
# ErbB4 = target: T11, ErbB4 (Homo sapiens, UniProt Q15303); experiment: Kinase inhibition assay (33P transfer), ErbB4; conditions: read-out: ErbB4-1
# T11 construct: Kinases are expressed as either kinase domains or full length constructs; made in house
# [3] = Table 2, kinase inhibition class
SMILES,"IC50 (Kdr; Table 3, class symbols) [µM]",IC50 (IGFR-1 [1]) [µM],"IC50 (EGFR; Table 2, class symbols A-E) [µM]","IC50 (Zap-70; Table 3, class symbols) [µM]","IC50 (Lck; Table 3, class symbols) [µM]","IC50 (AKT; Table 2, class symbols A-E) [µM]","IC50 (c-Met; Table 2, class symbols A-E) [µM]","IC50 (Itk; Table 3, class symbols) [µM]",IC50 (Kdr; Table 3) [µM],IC50 (EGFR; [3]) [µM],IC50 (Tek) [µM],IC50 (Zap-70; Table 3) [µM],IC50 (Lck; Table 3) [µM],IC50 (AKT; [3]) [µM],IC50 (EPHB4) [µM],IC50 (c-Met; [3]) [µM],IC50 (IGFR-1 [2]) [µM],IC50 (ErbB4) [µM],IC50 (Itk; Table 3) [µM]
COc1ccc(Nc2ncnc(N(C)c3ccc(OC(F)(F)F)cc3)n2)cc1OC [Compound 866],0.949 to 5.7,> 10.7,0.949 to 5.7,> 10.7,5.7 to 8.31,> 10.7,0.949 to 5.7,> 10.7,–,–,–,–,–,–,–,–,–,–,–
COc1ccc(Nc2ncnc(Nc3ccc(OCc4ccccc4)cc3)n2)cc1OC [Compound 157],–,–,–,–,–,–,–,–,0.931 to 5.59,0.931 to 5.59,5.59 to 8.15,5.59 to 8.15,> 10.5,8.15 to 10.5,0.931 to 5.59,8.15 to 10.5,> 10.5,> 10.5,> 10.5
Oc1cccc(Nc2ncnc(Nc3ccc(OCc4ccccc4)cc3)n2)c1 [Compound 159],–,–,–,–,–,–,–,–,6.23 to 9.08,< 1.04,6.23 to 9.08,6.23 to 9.08,> 11.7,1.04 to 6.23,6.23 to 9.08,1.04 to 6.23,9.08 to 11.7,> 11.7,> 11.7
COc1ccc(Nc2ncnc(Nc3ccccc3C)n2)cc1OC [Compound 111],–,–,–,–,–,–,–,–,1.19 to 7.11,< 1.19,> 13.3,> 13.3,1.19 to 7.11,> 13.3,> 13.3,> 13.3,< 1.19,> 13.3,> 13.3
CCOC(=O)Cc1ccc(Nc2ncnc(Nc3cc(OC)c(OC)c(OC)c3)n2)cc1 [Compound 62],–,–,–,–,–,–,–,–,0.91 to 5.46,< 0.91,> 10.2,> 10.2,0.91 to 5.46,> 10.2,> 10.2,7.96 to 10.2,0.91 to 5.46,> 10.2,> 10.2

# Next, values leading:
"IC50 (Kdr; Table 3, class symbols) [µM]",IC50 (IGFR-1 [1]) [µM],"IC50 (EGFR; Table 2, class symbols A-E) [µM]","IC50 (Zap-70; Table 3, class symbols) [µM]","IC50 (Lck; Table 3, class symbols) [µM]","IC50 (AKT; Table 2, class symbols A-E) [µM]","IC50 (c-Met; Table 2, class symbols A-E) [µM]","IC50 (Itk; Table 3, class symbols) [µM]",IC50 (Kdr; Table 3) [µM],IC50 (EGFR; [3]) [µM],IC50 (Tek) [µM],IC50 (Zap-70; Table 3) [µM],IC50 (Lck; Table 3) [µM],IC50 (AKT; [3]) [µM],IC50 (EPHB4) [µM],IC50 (c-Met; [3]) [µM],IC50 (IGFR-1 [2]) [µM],IC50 (ErbB4) [µM],IC50 (Itk; Table 3) [µM],SMILES
6.3 to 9.19,> 11.8,6.3 to 9.19,> 11.8,> 11.8,6.3 to 9.19,6.3 to 9.19,> 11.8,–,–,–,–,–,–,–,–,–,–,–,COC(=O)c1cccc(Nc2ncnc(-n3c(Cl)nc4ccccc43)n2)c1 [Compound 1066]
< 1.05,> 11.8,9.2 to 11.8,> 11.8,> 11.8,> 11.8,1.05 to 6.31,> 11.8,–,–,–,–,–,–,–,–,–,–,–,c1ccc(Nc2ncccc2-c2ncnc(Nc3ccc4[nH]ncc4c3)n2)cc1 [Compound 1117]
–,–,–,–,–,–,–,–,< 1.05,1.05 to 6.29,6.29 to 9.18,> 11.8,1.05 to 6.29,> 11.8,> 11.8,6.29 to 9.18,1.05 to 6.29,1.05 to 6.29,> 11.8,COc1cc(Nc2ncnc(Nc3cc(C)ccc3C)n2)cc(OC)c1OC [Compound 932]
